The values below come from paper PMC9694334, “Synthesis and Biological Evaluation of a Fused Structure of Indolizine and Pyrrolo[1,2-c]pyrimidine: Identification of Its Potent Anticancer Activity against Liver Cancer Cells” (Pharmaceuticals, 2022).

For assay [1], the system named is caspase-3. Description: Caspase-3 activity assay in Huh7 cells. It is filed as cell-based. As to conditions: 20 μM Ac-DEVD-CHO, Figure 4D. Here is the method: (§1) HepG2 and Huh7 cells were plated in 96-black-well plate to about 40% confluence, and then 5r was treated for 24 h. To assess activity of caspase-3, the growth medium was changed with 100 μL of PBS containing 1 μM caspase-3 substrate, NucView 488, and incubated at room temperature. After 20 min, 1 μM Hoechst 33342 was treated to stain the cells. Activity of caspase-3 was suppressed by Ac-DEVD-CHO, a selective caspase-3 inhibitor. FLUOstar Omega microplate reader (BMG Labtech, Ortenberg, Germany) was used to assess the fluorescence of NucView 488 and Hoechst, and Lionheart FX Automated Microscope (BioTek, Winooski, VT, USA) was used to acquire the fluorescence microscopy images.
(§2) Figure 4 Effect of 5r on activity of caspase-3 and cleavage of PARP in HepG2 and Huh7 cells. (A,B) HepG2 and Huh7 cells were incubated with 3 µM 5r for 24 h and then incubated with 1 µM caspase-3 substrate (green) and 1 µM Hoechst 33,342 (blue) for 20 min before image acquisition. (C,D) Cells were cultured with 5r at the indicated concentrations for 24 h and then 1 μM caspase-3 substrate was treated for 20 min. Caspase-3 was inhibited by 20 μM Ac-DEVD-CHO (mean ± S.D., n = 3). (E,F) Cells were cultured with 5r at the indicated concentrations for 24 h, and expression level of PARP, cleaved-PARP and β-actin were measured by Western blot analysis. […]

Assay [2] concerns caspase-3. Description: Caspase-3 activity assay in HepG2 cells. As to conditions: 20 μM Ac-DEVD-CHO, Figure 4C. It is filed as cell-based. Here is the method:
as §1, §2

For the next assay, the system named is HaCaT cells. Description: Cell viability assay (MTS) in HaCaT cells. As to conditions: Homo sapiens, mean, n = 5. The class given is cell-based, human. Here is the method: (§3) HepG2, Huh7, H1299, HT29, AGS and A549 cells were purchased from the Korean Cell Line Bank (Seoul, Korea) and HaCaT cells were obtained from Prof. Sohee Kwon (Yonsei University, Korea). Liver cancer cells (HepG2), human keratinocyte cells (HaCaT), and lung cancer cells (A549) were grown in DMEM high-glucose medium, liver cancer cells (Huh7) and non-small cell lung cancer cells (H1299) were grown in RPMI 1640, and gastric cancer cells (AGS) were grown in Coon’s modified F12 medium. All media were supplemented with 10% FBS, 100 Units/mL penicillin, and 100 μg/mL streptomycin. All cells were incubated at 37 °C, 5% CO2 and 95% humidity.
(§4) Cell viability assay was conducted using Cell Titer 96® AQueous One Solution Cell proliferation Assay kit (Promega, Madison, WI, USA). Five cancer cells and HaCaT cells were plated in 96-well microplates with growth medium for 24 h. When cell confluency reached ~30%, cells were treated with DMSO (vehicle) and test compounds. The medium and test compounds were replaced every 24 h. To measure cell viability, the cells were incubated with MTS solution for 1 h. The absorbance was measured by using Infinite M200 microplate reader (Tecan, Männedorf, Switzerland) at 490 nm.
(§5) Figure 2 Effect of 5r on cell viability in HepG2, Huh7, AGS, H1299, A549, HaCaT, NIH3T3, and HEK293T cells. (A–H) HepG2, Huh7, AGS, H1299, A549, HaCaT, NIH3T3, and HEK293T cells were cultured with 5r at the indicated concentrations for 72 h, and medium was replaced every 24 h with freshly added 5r. Cell viability was measured by MTS analysis (mean ± S.D., n = 5). * p < 0.05, ** p < 0.01, *** p < 0.001.

The subject of another assay is HT29 cells. Put plainly: Cell viability assay (MTS) in HT29 cells. The class given is cell-based. The conditions noted are these: mean, n = 3. Here is the method:
as §3, §4

In the next assay the test system is HepG2 cells. Put plainly: Cell viability assay (MTS) in HepG2 cells. It is filed as cell-based. As to conditions: mean; for IC50: Homo sapiens, MTS, n = 5, 72 h for 5r (Figure 2). Here is the method:
as §3, §4, §5

The test system of another assay is H1299 cells. Put plainly: Cell viability assay (MTS) in H1299 cells. It is filed as cell-based. As to conditions: 10 μM, mean, n = 3. Here is the method:
as §3, §4, §5

A further assay deals with AGS cells. Description: Cell viability assay (MTS) in AGS cells. The conditions noted are these: 10 μM, mean, n = 3. It is filed as cell-based. Here is the method:
as §3, §4, §5

For a further assay, the system named is A549 cells. Put plainly: Cell viability assay (MTS) in A549 cells. It is filed as cell-based. As to conditions: 10 μM, mean, n = 3. Here is the method:
as §3, §4, §5

In the next assay the test system is Huh7 cells. Put plainly: Cell viability assay (MTS) in Huh7 cells. As to conditions: Homo sapiens, Huh-7, mean, n = 5, 72 h for 5r (Figure 2). It is filed as cell-based. Here is the method: as §3, §4, §5
Another assay has as its system hepatocellular carcinoma. Details: method as in PMID 10951336, PMID 11408798, PMID 11462924, PMID 12115351, PMID 14612894. As to conditions: gemcitabine alone; phase 2 clinical trials; cited from earlier work.

Turning to Ac-DEVD-CHO [reference compound], the “Inhibition of 5r-increased caspase-3 activity in Huh7 cells” value in the assay on caspase-3 [1] is “fully inhibited”. For the same molecule, the “Inhibition of 5r-increased caspase-3 activity in HepG2 cells” value with caspase-3 [2] is listed as “fully inhibited”.
For `N#Cc1c2c3cccn3c(-c3cccs3)nc2n2ccccc12` [Compound 5n, 5-(Thiophen-2-yl)pyrrolo[1′,2′:1,6]pyrimido[5,4-b]indolizine-12-carbonitrile], the IC50 came to 13.3 µM in the assay on HaCaT cells, 0.28 µM in the assay with HepG2 cells and 0.75 µM in the assay with Huh7 cells. Further, the “% Inhibition of Cell Viability at 10 μM HT29” value in the assay on HT29 cells is on record as 48.4%. Moreover, the “% Inhibition of Cell Viability at 10 μM HepG2” value with HepG2 cells (10 μM, n = 3) is given as 98.9%. The “% Inhibition of Cell Viability at 10 μM H1299” value in the assay on H1299 cells was 70.3%. Moreover, the “% Inhibition of Cell Viability at 10 μM AGS” value in the assay with AGS cells is on record as under 25%. In the assay with A549 cells, the “% Inhibition of Cell Viability at 10 μM A549” value is given as 38.0%.
Regarding `N#Cc1c2c3cccn3c(-c3cc(Cl)ccc3O)nc2n2ccccc12` [Compound 5ab, 5-(5-Chloro-2-hydroxyphenyl)pyrrolo[1′,2′:1,6]pyrimido[5,4-b]indolizine-12-carbonitrile], the IC50 in the assay with HaCaT cells turned out to be 2.3 µM; with HepG2 cells, 0.84 µM; in the assay on Huh7 cells, 0.71 µM.
For `N#Cc1c2c3cccn3c(-c3cccc(Cl)c3)nc2n2ccccc12` [Compound 5v, 5-(3-Chlorophenyl)pyrrolo[1′,2′:1,6]pyrimido[5,4-b]indolizine-12-carbonitrile], the 50% inhibitory concentration (IC50) in the assay on HaCaT cells was 15.3 µM; in the assay with HepG2 cells it was 1.48 µM; in the assay with Huh7 cells, 1.33 µM.
`N#Cc1c2c3cccn3c(-c3ccccc3F)nc2n2ccccc12` [Compound 5t, 5-(2-Fluorophenyl)pyrrolo[1′,2′:1,6]pyrimido[5,4-b]indolizine-12-carbonitrile]: the IC50 with HaCaT cells stood at 6.78 µM; with HepG2 cells, 1.58 µM; with Huh7 cells it was 1.92 µM.
For the molecule `Nc1ccn([C@@H]2O[C@H](CO)[C@@H](O)C2(F)F)c(=O)n1` [gemcitabine], the Response rate with hepatocellular carcinoma is 0–20%.
With `N#Cc1c2c3cccn3c(-c3cccc(O)c3)nc2n2ccccc12` [Compound 5s, 5-(3-Hydroxyphenyl)pyrrolo[1′,2′:1,6]pyrimido[5,4-b]indolizine-12-carbonitrile], the IC50 in the assay on HaCaT cells came to 8.49 µM; in the assay on HepG2 cells, 2.94 µM; in the assay with Huh7 cells, 4.02 µM.
For `COc1ccc(-c2nc3c(c(C#N)c4ccccn43)c3cccn23)c(O)c1` [Compound 5z, 5-(2-Hydroxy-4-methoxyphenyl)pyrrolo[1′,2′:1,6]pyrimido[5,4-b]indolizine-12-carbonitrile], in that order: 1.95 µM, 0.64 µM and 0.71 µM.
